Patent US20260364080A1, “PYRAZOLO-PYRIMIDINONE COMPOUNDS FOR USE IN METHODS OF INHIBITING WEE1 A KINASE” (Acrivon Therapeutics, Inc., priority 2023, published 2026)

Legend:
[1] = molecular target: T1, recombinant human Wee1A kinase (Homo sapiens, UniProt P30291); assay: Wee1A kinase binding assay (LanthaScreen Eu time-resolved FRET); conditions: 30 nM tracer 178, 5 nM Wee1A kinase, 2 nM Eu-labeled antibody; 60 minutes at room temperature; read-out: Wee1A kinase Binding IC50
T1 construct: full length Wee1 kinase was expressed by baculovirus in insect cells; purchased Invitrogen PV3817; host or cells: insect cells (baculovirus)
In short: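 Full-length, baculovirus-expressed GST-tagged Wee1A (5 nM) was mixed with 2 nM Eu-anti-GST antibody, 30 nM kinase tracer 178 and compound (1% DMSO). Buffer was 50 mM HEPES pH 7.5, 10 mM MgCl2, 1 mM EGTA, 0.01% Brij-35, incubated 60 min at room temperature. TR-FRET 665/615 nm emission ratios from duplicates were curve-fitted.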

[2] = molecular target: T2, Myt1 kinase (recombinant PMYT-1) (Homo sapiens, UniProt Q99640); assay: Myt1 kinase binding assay (LanthaScreen Eu Kinase Binding Assay); conditions: 3 nM tracer 178, 2.5 nM PMYT-1, 1 nM Eu-labeled antibody; read-out: Myt1 kinase Binding IC50
T2 construct: full length PMYT-1 was expressed by baculovirus in insect cells; purchased Invitrogen A30984; host or cells: insect cells (baculovirus)
T2 sequence (Q99640 1-499): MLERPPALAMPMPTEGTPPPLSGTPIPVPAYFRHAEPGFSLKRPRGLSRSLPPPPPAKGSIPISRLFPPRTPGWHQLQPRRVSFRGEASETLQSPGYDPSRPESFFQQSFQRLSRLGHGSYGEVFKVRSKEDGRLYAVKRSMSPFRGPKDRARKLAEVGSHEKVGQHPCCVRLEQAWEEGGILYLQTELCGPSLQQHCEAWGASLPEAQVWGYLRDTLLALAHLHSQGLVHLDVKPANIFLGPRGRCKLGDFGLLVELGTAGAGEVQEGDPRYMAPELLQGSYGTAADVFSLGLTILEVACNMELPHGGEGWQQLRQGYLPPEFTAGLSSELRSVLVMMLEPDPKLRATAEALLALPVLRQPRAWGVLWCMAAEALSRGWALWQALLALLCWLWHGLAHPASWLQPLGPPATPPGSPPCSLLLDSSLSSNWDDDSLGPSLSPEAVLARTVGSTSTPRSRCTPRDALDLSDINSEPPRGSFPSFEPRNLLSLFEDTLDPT
In short: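 The binding affinity of compounds for Myt1 kinase was measured with a LanthaScreen Europium (Eu) Kinase Binding Assay, a time-resolved FRET format in which test compounds compete against a labeled kinase tracer, and the results were expressed as IC50 values describing compound binding to Myt1.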

[3] = molecular target: T3, Myt1 kinase (CDK1 Thr14 phosphorylation in ACHN renal cell carcinoma cells) (Homo sapiens, UniProt Q99640); assay: AlphaLISA assay, Myt1 kinase target engagement (phospho-CDK1 Thr14) in ACHN cells; format: cell-based; conditions: ACHN cells (marked *); 4 h treatment
T3 construct: pCDK1 Thr14 AlphaLISA read-out
T3 sequence (Q99640 1-499): T2 sequence (Q99640 1-499)
Experimental: Each of an ACHN renal cell carcinoma cell line (ATCC) and a DAOY medulloblastoma cell line, and an A427 lung cancer line were cultured in Minimum Essential Medium Eagle supplemented with 10% fetal calf serum (Sigma), 1% Penicillin-Streptomycin and 10 mM HEPES buffer (HyClone). Cell cultures were kept in a humidified incubator at 37 °C and 5% CO2. Cells were routinely tested for Mycoplasma contamination.
For target engagement assessment of Myt1 kinase inhibition, quantification of Cdk1 phosphorylated on threonine 14 was detected using the AlphaLISA® SureFire® Ultra™ Human Phospho-CDK1 (Thr14) assay (Perkin Elmer). DAOY or ACHN cells were seeded into tissue culture treated 96-well plates (VWR) to a density of 10,000 or 20,000 cells per well respectively. 24 h post seeding cells were treated for 4 h with compounds at concentrations ranging from 7 to 5000 nM. Cells were washed with PBS and lysed in 50 μl AlphaLISA lysis buffer before freezing at −80 C. Ten ul of the lysate was transferred to 384 well plates and incubated with AlphaLISA donor and acceptor beads according to the manufacturer's instructions. Dose response curves and EC50 values were calculated and visualized using GraphPad Prism version 9. Target engagement for Myt1 kinase can also be measured using the same AlphaLISA assay in OVCAR3 cells, an ovarian cancer cell line. NIH:OVCAR-3 (OVCAR3) cells are cultured in RPMI-1640 medium supplemented with 0.01 mg/ml insulin, 20% FBS, 1% Penicillin-Streptomycin and 10 mM HEPES buffer. 14,000 cells per well are seeded into 96 well tissue culture plates in full medium. Twenty-four hours post seeding, cells are treated with compound for 4 hours at concentrations ranging from 0.017 nM to 1000 nM.

[4] = molecular target: T4, Wee1A kinase (CDK1 Tyr15 phosphorylation in ACHN renal cell carcinoma cells) (Homo sapiens, UniProt P30291); assay: High-content imaging of pCdk1 Y15, Wee1A kinase target engagement in ACHN cells; format: cell-based; conditions: 4 h treatment, nuclear positivity for pCdk1 Y15 vs DMSO control, read-out: CDK1 Tyr15 Phosphorylation EC50
T4 construct: pCDK1 Tyr15 immunofluorescence read-out
In short: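 ACHN cells exposed to compound for 4 h over 7–5,000 nM or 0.3–200 nM, then fixed and immunostained for pCDK1 Y15 with DAPI nuclear counterstain. The percentage of pCdk1 Y15 nucleus-positive cells relative to DMSO control was imaged per well; EC50 from dose-response curves.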

[5] = test system: ACHN cells; assay: Cell Titer Glo viability assay, ACHN cells; format: cell-based; conditions: Homo sapiens, 144 h, absolute EC50
In short: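 Cells grown in MEM with 10% FCS were seeded at 500 (A427), 400 (ACHN) or 250 (DAOY) per well and treated the next day with compound at 17 to 10 000 nM. Viability relative to untreated control was read at 144 h by CellTiter-Glo 2.0.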

T1 sequence (P30291 whole entry): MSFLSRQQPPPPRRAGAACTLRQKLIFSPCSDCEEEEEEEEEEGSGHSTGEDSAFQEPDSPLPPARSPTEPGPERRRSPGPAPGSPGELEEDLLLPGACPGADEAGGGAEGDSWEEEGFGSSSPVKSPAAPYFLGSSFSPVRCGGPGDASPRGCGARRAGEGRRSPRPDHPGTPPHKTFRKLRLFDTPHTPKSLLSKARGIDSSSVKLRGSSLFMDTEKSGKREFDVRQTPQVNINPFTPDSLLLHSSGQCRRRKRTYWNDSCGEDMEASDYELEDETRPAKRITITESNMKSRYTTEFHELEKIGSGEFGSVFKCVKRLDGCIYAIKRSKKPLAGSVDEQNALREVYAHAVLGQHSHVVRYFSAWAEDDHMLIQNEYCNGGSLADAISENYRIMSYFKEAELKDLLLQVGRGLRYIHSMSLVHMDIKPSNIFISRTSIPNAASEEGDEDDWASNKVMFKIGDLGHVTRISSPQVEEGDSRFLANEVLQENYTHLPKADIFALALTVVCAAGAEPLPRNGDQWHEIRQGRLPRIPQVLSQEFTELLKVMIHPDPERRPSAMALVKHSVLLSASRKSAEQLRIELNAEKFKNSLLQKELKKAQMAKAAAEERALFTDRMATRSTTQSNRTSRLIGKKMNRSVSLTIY
T4 sequence (P30291 whole entry): as above

Row | SMILES | IC50 [1] [nM] | IC50 [2] [nM] | EC50 [3] [nM] | EC50 [4] [nM] | EC50 [5] [nM]
1 | [2H]C([2H])([2H])c1cccc(Nc2ncc3c(=O)n(CC=C)n(-c4cccc(OC5CCN(C)CC5)n4)c3n2)c1 [Compound 333, 2-allyl-6-((3-(methyl-d3)phenyl)amino)-1-(6-((1-methylpiperidin-4-yl)oxy)pyridin-2-yl)-1,2-dihydro-3H-pyrazolo[3,4-d]pyrimidin-3-one] | < 10 | 20 to 100 | 200 to 500 | < 100 | ≤ 100
2 | C=CCn1c(=O)c2cnc(Nc3ccc4c(c3)c(C)nn4C)nc2n1-c1cccc(OC2CCN(C)CC2)n1 [Compound 346, 2-allyl-6-((1,3-dimethyl-1H-indazol-5-yl)amino)-1-(6-((1-methylpiperidin-4-yl)oxy)pyridin-2-yl)-1,2-dihydro-3H-pyrazolo[3,4-d]pyrimidin-3-one] | < 10 | 20 to 100 | 200 to 500 | < 100 | ≤ 100
3 | CN1CCC(Oc2cccc(-n3c4nc(Nc5ccc6c(ccn6C)c5)ncc4c(=O)n3C)n2)CC1 [Compound 360, 2-methyl-6-((1-methyl-1H-indol-5-yl)amino)-1-(6-((1-methylpiperidin-4-yl)oxy)pyridin-2-yl)-1,2-dihydro-3H-pyrazolo[3,4-d]pyrimidin-3-one] | < 10 | 20 to 100 | 500 to 1000 | < 100 | ≤ 100
4 | C=CCn1c(=O)c2cnc(Nc3ccc4c(ccn4C(C)=O)c3)nc2n1-c1cccc(OC2CCNCC2)n1 [Compound 384] | < 10 | 20 to 100 | > 1000 | < 100 | ≤ 100
5 | C=CCn1c(=O)c2cnc(Nc3ccc4c(cnn4CCC)c3)nc2n1-c1cccc(OC2CCN(C)CC2)n1 [Compound 385, 2-allyl-1-[6-(1-methyl-4-piperidyloxy)-2-pyridyl]-6-(1-propyl-1H-indazol-5-ylamino)-1,2-dihydro-3H-1,2,5,7-tetraazainden-3-one] | < 10 | < 20 | < 200 | < 100 | ≤ 100
6 | C=CCn1c(=O)c2cnc(Nc3ccc4c(cnn4C4CC4)c3)nc2n1-c1cccc(OC2CCN(C)CC2)n1 [Compound 386, 2-allyl-6-((1-cyclopropyl-1H-indazol-5-yl)amino)-1-(6-((1-methylpiperidin-4-yl)oxy)pyridin-2-yl)-1,2-dihydro-3H-pyrazolo[3,4-d]pyrimidin-3-one] | < 10 | < 20 | < 200 | < 100 | ≤ 100
7 | C=CCn1c(=O)c2cnc(Nc3ccc4c(cnn4CCCF)c3)nc2n1-c1cccc(OC2CCN(C)CC2)n1 [Compound 387, 2-allyl-6-((1-(3-fluoropropyl)-1H-indazol-5-yl)amino)-1-(6-((1-methylpiperidin-4-yl)oxy)pyridin-2-yl)-1,2-dihydro-3H-pyrazolo[3,4-d]pyrimidin-3-one] | < 10 | 20 to 100 | < 200 | < 100 | ≤ 100
8 | C=CCn1c(=O)c2cnc(Nc3ccc(OCCF)cc3)nc2n1-c1ccnc(OC2CCN(C)CC2)n1 [Compound 388, 2-allyl-6-((4-(2-fluoroethoxy)phenyl)amino)-1-(2-((1-methylpiperidin-4-yl)oxy)pyrimidin-4-yl)-1,2-dihydro-3H-pyrazolo[3,4-d]pyrimidin-3-one] | < 10 | 20 to 100 | < 200 | < 100 | ≤ 100
9 | C=CCn1c(=O)c2cnc(Nc3ccc4c(cnn4CCC)c3)nc2n1-c1cccc(OC2CCNCC2)n1 [Compound 390, 2-allyl-1-[6-(4-piperidyloxy)-2-pyridyl]-6-(1-propyl-1H-indazol-5-ylamino)-1,2-dihydro-3H-1,2,5,7-tetraazainden-3-one] | < 10 | < 20 | < 200 | < 100 | ≤ 100
10 | C=CCn1c(=O)c2cnc(Nc3ccc4c(ccn4C(C)=O)c3)nc2n1-c1cccc(OC2CCN(C)CC2)n1 [Compound 392, 6-((1-acetyl-1H-indol-5-yl)amino)-2-allyl-1-(6-((1-methylpiperidin-4-yl)oxy)pyridin-2-yl)-1,2-dihydro-3H-pyrazolo[3,4-d]pyrimidin-3-one] | < 10 | 20 to 100 | < 200 | < 100 | ≤ 100
11 | C=CCn1c(=O)c2cnc(Nc3ccc4c(cnn4CC(C)C)c3)nc2n1-c1cccc(OC2CCN(C)CC2)n1 [Compound 394, 2-allyl-6-((1-isobutyl-1H-indazol-5-yl)amino)-1-(6-((1-methylpiperidin-4-yl)oxy)pyridin-2-yl)-1,2-dihydro-3H-pyrazolo[3,4-d]pyrimidin-3-one] | < 10 | < 20 | < 200 | < 100 | ≤ 100
12 | C=CCn1c(=O)c2cnc(Nc3ccc4nn(C(C)(C)C)cc4c3)nc2n1-c1cccc(OC2CCN(C)CC2)n1 [Compound 396, 2-allyl-6-((2-(tert-butyl)-2H-indazol-5-yl)amino)-1-(6-((1-methylpiperidin-4-yl)oxy)pyridin-2-yl)-1,2-dihydro-3H-pyrazolo[3,4-d]pyrimidin-3-one] | < 10 | < 20 | < 200 | < 100 | ≤ 100
13 | C=CCn1c(=O)c2cnc(Nc3ccc4c(cnn4CCCF)c3)nc2n1-c1cccc(OC2CCNCC2)n1 [Compound 397, 2-allyl-6-((1-(3-fluoropropyl)-1H-indazol-5-yl)amino)-1-(6-(piperidin-4-yloxy)pyridin-2-yl)-1,2-dihydro-3H-pyrazolo[3,4-d]pyrimidin-3-one] | < 10 | 20 to 100 | 500 to 1000 | < 100 | ≤ 100
14 | C=CCn1c(=O)c2cnc(Nc3ccc4cn(C)nc4c3)nc2n1-c1cccc(OC2CCN(C)CC2)n1 [Compound 398, 2-allyl-6-((2-methyl-2H-indazol-6-yl)amino)-1-(6-((1-methylpiperidin-4-yl)oxy)pyridin-2-yl)-1,2-dihydro-3H-pyrazolo[3,4-d]pyrimidin-3-one] | < 10 | 20 to 100 | 200 to 500 | < 100 | ≤ 100
